Test results: patent US10028999B2, “PAR-1 based therapeutic conjugates and uses thereof” (TEL HASHOMER MEDICAL RESEARCH INFRASTRUCTURE AND SERVICES …, priority 2014, dated 2018)
Peptide text beside a SMILES is read from it. * marks the point of attachment. Tos = Cc1ccc(S(=O)(=O)*)cc1; CH2Cl = ClC*

Experiments:
blood coagulation (aPTT) = test: Activated partial thromboplastin time test; format: biochemical; settings: for aPTT: without conjugate 30.5; for Potency score in aPTT test: most potent (1) to least potent (5)
[1] = test system: blood coagulation (prothrombin time); test: Prothrombin time test; format: biochemical; settings: for PT: without conjugate 11.5; for Potency score in PT test: most potent (1) to least potent (5)
thrombin = test: Thrombin time test; format: biochemical; settings: for TT: without conjugate 13.4; for Potency score in TT test: most potent (1) to least potent (5)
Protein C = Protein C (Homo sapiens, UniProt P04070); test: Protein C activity test; format: biochemical; settings: for aPC: without conjugate 109; for Potency score in Protein C activity test: most potent (1) to least potent (5)
Protein C, sequence (P04070 212-461 limits assumed): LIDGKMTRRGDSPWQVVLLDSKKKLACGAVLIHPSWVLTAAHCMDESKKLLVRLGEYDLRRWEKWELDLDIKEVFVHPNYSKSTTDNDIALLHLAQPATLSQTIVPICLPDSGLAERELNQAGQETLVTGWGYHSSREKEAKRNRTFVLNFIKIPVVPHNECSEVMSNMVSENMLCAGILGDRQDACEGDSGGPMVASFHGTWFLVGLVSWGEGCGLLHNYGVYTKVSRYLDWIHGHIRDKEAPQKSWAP
Protein C, sequence (P04070 43-197 partner limits assumed): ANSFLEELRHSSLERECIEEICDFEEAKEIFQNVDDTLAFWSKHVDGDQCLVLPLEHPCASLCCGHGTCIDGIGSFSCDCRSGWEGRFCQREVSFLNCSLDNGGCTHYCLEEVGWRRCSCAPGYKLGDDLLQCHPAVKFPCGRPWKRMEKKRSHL

in vivo = settings: ip, 2 micromolar, in 100 ul
Protocol: The concentrations of the peptide conjugates in the plasma of animals treated therewith was evaluated by a unique method that was based on the ability of the peptide conjugates to inhibit thrombin activity. […] The essay initiated by obtaining blood samples from animals which received the peptide conjugates (100 microliter containing 2 micromolar, i.p.). The blood samples, after being maintained in citrate buffered sample tubes, were subjected to centrifugation for plasma separation. Samples were then filtered through a membrane with a 10 kD molecular weight cutoff which excluded all blood coagulation factors (by addition of calcium to neutralize the anticoagulation effect of the citrate buffer). Coagulation factor-free plasma samples were then applied to the thrombin activity assay.
The resulting thrombin activities in each plasma sample either diluted (×10) or as is were given in arbitrary units (FIGS. 18-18D, diagonal shading and dotted bars, respectively). However, the actual concentration were deduced by comparing the activities to calibrated activities generated with known concentrations of the conjugate peptides. The calibration data included the following thrombin activities: activity in a sample of thrombin in the absence of plasma and conjugates (black bars, FIGS. 18A-18D); and activity in four samples of thrombin and known concentrations of the peptide conjugates (10 nM, 100 nM, 1 micromolar and 10 micromolar; bars 2nd to 5th from right in FIGS. 18A-18D).

[2] = test system: rat Glioblastoma multiforme (GBM) tumor; test: Tumor size, edema and survival in GBM animal model; format: in vivo; settings: for change in edema surrounding the tumor: 1 μl/h for 7 days; for change in tumor size: 1 μl/h for 7 days intratumoral, MRI, grade 1 and 2 tumors; for rats with severe initial tumors surviving to the second MRI: none of 3 in controls
Protocol: Cells (0.5×10^6 cells) from a highly malignant cell line of rat Glioblastoma multiforme (GBM) were injected by stereotactic methods into the parietal cortex of rats. Five (5) days later the brain of these rats were examined by MM and the tumors scored on a scale of 1-3 (1-small size tumor, 2-middle size tumor, 3-large size tumor) and for ventricular localization of the tumor. A catheter was placed in the brain tumor and attached to an osmotic pump (Alzet) releasing 1 μl/h for 7 days of one of the following three (3) treatments: saline (n=13), 6AA 2 μM (n=14) and 6AA 20 μM (n=14).
In order to account for the unequal distribution of initial tumor size, tumor and edema analyses were performed on rats with grade 1 and 2 tumors in the initial Mill (n=7, 6 and 5 for the saline, low and high treatment groups, respectively).
Survival was registered daily (FIG. 21).

Factor Xa = Factor Xa activity test; format: biochemical; settings: 100 μM; for Potency score in Factor Xa activity test: most potent (1) to least potent (5); for Fxa: without conjugate 0.11
CNS-1 glioma cells [3] = test: Proliferation (XTT) of CNS-1 glioma cells; format: cell-based, rat; settings: CNS-1 cells
Protocol: Several peptide moieties (Table 1) according to the present invention were synthesized. Proliferation was measured, by means of XTT, in C6 and CNS-1 glioma cell-lines (FIGS. 8A and 8B, respectively). In C6 cells, proliferation was measured before (black bar) and after cells were treated with the PAR-1 antagonist SCH79797 at various doses ranging from 10 nM to 10 μM (grey bars; FIG. 8A).
In another set of experiments, CNS-1 glioma cell-line was treated with increased doses of TLCK (125 nM to 14 mM), for 48 hours (FIG. 9; grey bars). Proliferation was measured by means of XTT in comparison to non-treated cells (control; black bar).
Initially, CNS-1 glioma cells were treated with increased concentrations of two peptide conjugates: a short conjugate of the formula tosyl-DPR-CK (comprising 3 amino acids, 3AA) or a long conjugate of the formula tosyl-NATLDPR-CK (comprising 7 amino acids, 7AA; SEQ ID NO: 4) in concentrations of 100 pM, 1 nM and 10 nM, for 48 hours (FIG. 10). FIG. 10 provides the results of an XTT assay used for assessing cell proliferation.
The effect of the peptide conjugate alone, or in combination with PAR-1 antagonist, SCH79797, on cell proliferation was determined in comparison to untreated cells or cells treated with PAR-1 antagonist (FIG. 13).

CNS-1 glioma cells [4] = test system: CNS-1 glioma cells
Protocol: The thrombin-like activity of CNS-1 cells was initially measured in control cells and in cells treated with (i) the short peptide conjugate (tosyl-DPR-CK, corresponding to a conjugate that includes the peptide termed 3AA) or (ii) the long conjugate (tosyl-NATLDPR-CK, corresponding to a conjugate that includes the peptide termed 7AA (SEQ ID No. 4)) at high ([…]) and low (100 nM) concentrations (FIG. 16).

[5] = test system: EAN rats (experimental autoimmune neuritis); test: Electrophysiological tests in EAN rats treated with thrombin inhibitors; format: in vivo, rat
Protocol: (§1) Electrophysiological tests of the sciatic nerves were performed on day 32 PI (post-immunization/induction) in EAN model (FIGS. 3A-C) and 8 weeks after STZ induction (FIG. 4A-C). Rats were anesthetized with Phenobarbital (IP, 24 mg/kg). Two pairs of monopolar needle electrodes were used to stimulate the tail nerves. Stimulating cathodes were inserted to a depth of 4-5 mm at the base of the tail and 4 cm distally. An anode at each location was inserted into the skin (4-5 mm depth) 1 cm proximal to the cathode. A ground electrode was placed between the distal stimulating electrode and the active recording electrode. Electromyography (EMG) recordings of responses of the tail muscles to proximal and distal stimuli, made by a pair of ring electrodes coated with electrode jelly and placed 1 cm distally to the distal stimulating electrode, were collected. The tail skin was wiped with alcohol prior to placing the electrodes. […] Both proximal and distal latencies were measured using time intervals from the stimulus artifact to the first deflection from baseline. To calculate the motor nerve conduction velocity (MNCV), the distance between stimulating cathodes was divided by the latency difference. Amplitudes of the compound muscle action potential (CMAP) from both proximal and distal stimulations were measured from the negative to the positive peaks. The reduction of the proximal CMAP compared with that of the distal CMAP was calculated by the equation: [(distal CMAP-proximal CMAP)/distalCMAP×100] and was defined as the R ratio. Temperature differences were minimized by conducting the study as soon as the anesthesia had taken effect and by warming the tail with a heating lamp.
(§2) FIGS. 3 and 4 each include 3 graphs summarizing the results from electrophysiological tests of treated rats, as follows: distal latency (3A, 4A) referring to the time, in milliseconds, between distal stimulation to recording; conduction velocity (3B, 4B) referring to the distance over time, in meters/seconds; and amplitude (3C, 4C) referring to the size of the response as measured in millivolts.

[6] = test system: STZ-induced diabetic rats; test: Electrophysiological tests in STZ-induced diabetic rats treated with thrombin inhibitors; format: in vivo, rat
Protocol: as §1, §2

aPTT (blood coagulation (aPTT); 10 nM)	aPTT (blood coagulation (aPTT); 1 μM)	Potency score in aPTT test (blood coagulation (aPTT); 100 μM)	aPTT (blood coagulation (aPTT); 100 μM)	PT ([1]; 10 nM)	PT ([1]; 1 μM)	Potency score in PT test ([1]; 100 μM)	PT ([1]; 100 μM)	TT (thrombin; 10 nM)	Potency score in TT test (thrombin; 1 μM)	TT (thrombin; 1 μM)	TT (thrombin; 100 μM)	Compound	aPC (Protein C; 1 μM)	Potency score in Protein C activity test (Protein C; 100 μM)	aPC (Protein C; 100 μM)	level at time molar (in vivo)	Potency score in Factor Xa activity test (Factor Xa)	Fxa (Factor Xa)	inhibition of cell proliferation (CNS-1 glioma cells [3]; 48 hours, 10 μM, p<0.05)	also measured
30.8 s	30.9 s	5	42.6 s	11.5 s	11.4 s	5	12.7 s	13.5 s	5	14.6 s	> 80 s	Cc1ccc(S(=O)(=O)N[C@@H](CC(C)C)C(=O)N[C@@H](CC(=O)O)C(=O)N2CCC[C@H]2C(=O)N[C@@H](CCCNC(=N)N)C(=O)CCl)cc1 [4AA, tosyl-LDPR-CK] (Tos-LDPR-CH2Cl)								
29.9 s	30.7 s	2	85.2 s	11.5 s	11.2 s	2	17.4 s	13.5 s	2	24.1 s	> 80 s	Cc1ccc(S(=O)(=O)N[C@@H](CC(N)=O)C(=O)N[C@@H](C)C(=O)N[C@H](C(=O)N[C@@H](CC(C)C)C(=O)N[C@@H](CC(=O)O)C(=O)N2CCC[C@H]2C(=O)N[C@@H](CCCNC(=N)N)C(=O)CCl)[C@@H](C)O)cc1 [7AA, tosyl-NATLDPR-CK] (Tos-NATLDPR-CH2Cl)	110	4	25	~0.01 µM	2	0.43	Significant inhibition	IC50 (CNS-1 glioma cells [4]): 0.01 nM; inhibition of cell proliferation (CNS-1 glioma cells [3]; XTT, 48 hours, 10 nM): significant inhibition; inhibition of cell proliferation, in combination with PAR-1 antagonist (CNS-1 glioma cells [3]; XTT, PAR-1 antagonist 1 μM, compared to untreated cells and to PAR-1 antagonist alone): greater inhibition on cell proliferation; inhibition of cell proliferation, applied alone (CNS-1 glioma cells [3]; XTT, compared to untreated cells and to PAR-1 antagonist alone): greater inhibition on cell proliferation
												N alpha-tosyl-L-lysine chloromethyl ketone [TLCK]								conduction velocity ([5]; daily treatment for 2 weeks, TLCK 4.4 mg/kg, NAPAP 120 μM/kg, untreated EAN 23.6±1.2): 40.55±6.7 m/sec; proximal amplitude ([5]; untreated EAN 0.76±0.33, non-significant): 1.36±0.49 millivolts; latency ([5]; untreated EAN 1.43±0.023, control 0.54±0.03): 1.28 ± 0.18 ms; conduction velocity ([6]; STZ rats, daily treatment for 2 weeks, TLCK 4.4 mg/kg, NAPAP 120 μM/kg, untreated STZ 28.5±2.8): 41.95±3.9 m/sec; proximal amplitude ([6]; STZ rats, untreated STZ 0.48±0.13, insignificant): 1.81±0.8 millivolts; latency ([6]; STZ rats, untreated STZ 1.93±0.139, control 1.29±0.057): 1.44 ± 0.04 ms; internal bleeding ([6]; animals treated with thrombin inhibitors): caused severe internal bleeding; concentration at which glioma-cell proliferation decreased (CNS-1 glioma cells [3]; 48 hours): higher than 1 μM; proliferation-inhibition (CNS-1 glioma cells [3]; 48 hours, 1 μM to 125 nM): No significant proliferation-inhibition; proliferation / cell death (CNS-1 glioma cells [3]; 48 hours, 6.7 mM and 14 mM): caused cell death; proliferation-inhibition (CNS-1 glioma cells [3]; 48 hours, 8-33 μM): significant proliferation-inhibition; proliferation, administered alone (CNS-1 glioma cells [3]; XTT, 1 μM): did not inhibit proliferation; proliferation-inhibition, combined treatment with the PAR-1 antagonist (CNS-1 glioma cells [3]; compared with PAR-1 antagonist (1 μM) alone): significantly increased said inhibitory effect

Compound	aPTT (blood coagulation (aPTT); 10 nM)	aPTT (blood coagulation (aPTT); 1 μM)	Potency score in aPTT test (blood coagulation (aPTT); 100 μM)	aPTT (blood coagulation (aPTT); 100 μM)	PT ([1]; 10 nM)	PT ([1]; 1 μM)	Potency score in PT test ([1]; 100 μM)	PT ([1]; 100 μM)	TT (thrombin; 10 nM)	Potency score in TT test (thrombin; 1 μM)	TT (thrombin; 1 μM)	TT (thrombin; 100 μM)	aPC (Protein C; 1 μM)	Potency score in Protein C activity test (Protein C; 100 μM)	aPC (Protein C; 100 μM)	level at time molar (in vivo)	Potency score in Factor Xa activity test (Factor Xa)	Fxa (Factor Xa)	inhibition of cell proliferation (CNS-1 glioma cells [3]; 48 hours, 10 μM, p<0.05)	also measured
Cc1ccc(S(=O)(=O)N[C@@H](C)C(=O)N[C@H](C(=O)N[C@@H](CC(C)C)C(=O)N[C@@H](CC(=O)O)C(=O)N2CCC[C@H]2C(=O)N[C@@H](CCCNC(=N)N)C(=O)CCl)[C@@H](C)O)cc1 [6AA, tosyl-ATLDPR-CK] (Tos-ATLDPR-CH2Cl)	30 s	30.6 s	3	67.6 s	11.5 s	11.4 s	3	16.5 s	13.9 s	3	18.5 s	> 80 s	108	2	11	< 0.01 µM	3	0.36	Significant inhibition	change in edema surrounding the tumor ([2]; 2 μM): reduction in the edema; change in tumor size ([2]; 2 μM): A similar trend was observed; rats with severe initial tumors surviving to the second MRI ([2]; 2 μM): 1 out of 3; change in edema surrounding the tumor ([2]; 20 μM): reduction in the edema; change in tumor size ([2]; 20 μM, p=0.030): reduced tumor size to half of the original size; survival ([2]; 20 μM, registered daily): clear trend to increased survival; rats with severe initial tumors surviving to the second MRI ([2]; 20 μM): all 3; proliferation compared to controls (CNS-1 glioma cells [3]; 72 hours, all tested concentrations, p<0.05): significantly lower proliferation
